From patent US20140155376A1, “PYRROLOPYRAZINE KINASE INHIBITORS” (Hoffmann-La Roche Inc., priority 2010, published 2014)

Biological target: T1, JAK3 (recombinant human kinase domain; h-jak3(810-1124)) (Homo sapiens, UniProt P52333)
T1 construct: h-jak3(810- 1124)-sf9-c; made in house; host or cells: Sf9 insect cells
Assay: Determination of IC50 of Janus Kinase (JAK) inhibition: JAK3, radioactive end-point assay with 33P-ATP
Assay type: biochemical
Details: JAK3 kinase domain; ATP 1.5 uM, peptide 50 uM, 20 minutes, room temperature, 10% DMSO; read-out: Ic50 h-jak3(810-1124)-sf9-c:no additive

T1 sequence (P52333 810-1124): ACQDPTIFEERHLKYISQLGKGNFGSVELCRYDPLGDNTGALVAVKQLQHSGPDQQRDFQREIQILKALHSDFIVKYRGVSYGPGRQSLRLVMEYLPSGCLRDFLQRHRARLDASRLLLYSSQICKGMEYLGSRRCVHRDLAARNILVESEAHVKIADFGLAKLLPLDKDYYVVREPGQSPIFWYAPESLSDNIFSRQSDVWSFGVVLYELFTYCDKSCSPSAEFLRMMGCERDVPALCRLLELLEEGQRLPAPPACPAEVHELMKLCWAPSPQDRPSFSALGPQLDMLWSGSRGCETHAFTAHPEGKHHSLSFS

CC(C)NC(=O)c1c[nH]c2ncc(Oc3ccc4c(c3)[C@H](NC(=O)C(C)(C)C)CC4)nc12 [Example I-285, 2-[(R)-3-(2,2-Dimethyl-propionylamino)-indan-5-yloxy]-5H-pyrrolo[2,3-b]pyrazine-7-carboxylic acid isopropylamide]
IC50: 234 nM

CC(C)(C)[C@H](CO)NC(=O)c1c[nH]c2ncc(C3CC3)nc12 [Example I-52, 2-Cyclopropyl-5H-pyrrolo[2,3-b]pyrazine-7-carboxylic acid ((R)-1-hydroxymethyl-2,2-dimethyl-propyl)-amide]
IC50: 11.1 nM

CC(NC(=O)c1c[nH]c2ncc(C3CC3)nc12)c1ccccn1 (centres unmarked) [Example I-70, 2-Cyclopropyl-5H-pyrrolo[2,3-b]pyrazine-7-carboxylic acid (1-pyridin-2-yl-ethyl)-amide]
IC50: 87 nM

CC(C)NC(=O)c1c[nH]c2ncc(Oc3ccc4[nH]ccc4c3)nc12 [Example I-277, 2-(1H-Indol-5-yloxy)-5H-pyrrolo[2,3-b]pyrazine-7-carboxylic acid isopropylamide]
IC50: 229 nM

CC(C)NC(=O)c1c[nH]c2ncc(Oc3ccc(F)cc3F)nc12 [Example I-132, 2-(2,4-Difluoro-phenoxy)-5H-pyrrolo[2,3-b]pyrazine-7-carboxylic acid isopropylamide]
IC50: 415 nM

C[C@@H](NC(=O)c1c[nH]c2ncc(-c3ccccn3)nc12)C(C)(C)O [Example I-112, 2-Pyridin-2-yl-5H-pyrrolo[2,3-b]pyrazine-7-carboxylic acid ((R)-2-hydroxy-1,2-dimethyl-propyl)-amide]
IC50: 86.2 nM

Cc1cc(-c2cnc3[nH]cc(C(=O)N[C@@H](C)C(C)(C)C)c3n2)sc1C(=O)N1CCS(=O)(=O)CC1 [Example I-220, 2-[5-(1,1-Dioxo-1λ^6-thiomorpholine-4-carbonyl)-4-methyl-thiophen-2-yl]-5H-pyrrolo[2,3-b]pyrazine-7-carboxylic acid ((S)-1,2,2-trimethyl-propyl)-amide]
IC50: 0.23 nM

CCNC(=O)c1c[nH]c2ncc(Oc3cccc(C#N)c3)nc12 [Example I-245, 2-(3-Cyano-phenoxy)-5H-pyrrolo[2,3-b]pyrazine-7-carboxylic acid ethylamide]
IC50: 3310 nM

CC(C)NC(=O)c1c[nH]c2ncc(Oc3ccc4c(c3)[C@H](NC(=O)C3CC3)CC4)nc12 [Example I-284, 2-[(R)-3-(Cyclopropane-carbonyl-amino)-indan-5-yloxy]-5H-pyrrolo[2,3-b]pyrazine-7-carboxylic acid isopropylamide]
IC50: 50 nM

COC(C)(C)CNC(=O)c1c[nH]c2ncc(C3CC3)nc12 [Example I-50, 2-Cyclopropyl-5H-pyrrolo[2,3-b]pyrazine-7-carboxylic acid (2-methoxy-2-methyl-propyl)-amide]
IC50: 9.03 nM

CCNC(=O)c1c[nH]c2ncc(Oc3ccc4c(c3)[C@H](NS(C)(=O)=O)CC4)nc12 [Example I-270, 2-((R)-3-Methanesulfonylamino-indan-5-yloxy)-5H-pyrrolo[2,3-b]pyrazine-7-carboxylic acid ethylamide]
IC50: 740 nM

CCNC(=O)c1c[nH]c2ncc(Oc3cccc(C(F)(F)F)c3)nc12 [Example I-251, 2-(3-Trifluoromethyl-phenoxy)-5H-pyrrolo[2,3-b]pyrazine-7-carboxylic acid ethylamide]
IC50: 4030 nM

Cc1ccccc1CNC(=O)c1ccc(-c2cnc3[nH]cc(C(=O)N[C@@H](C)C(C)(C)C)c3n2)s1 [Example I-187, 2-[5-(2-Methyl-benzylcarbamoyl)-thiophen-2-yl]-5H-pyrrolo[2,3-b]pyrazine-7-carboxylic acid ((S)-1,2,2-trimethyl-propyl)-amide]
IC50: 0.46 nM

CCc1ccccc1Oc1cnc2[nH]cc(C(=O)NC(C)C)c2n1 [Example I-238, 2-(2-Ethyl-phenoxy)-5H-pyrrolo[2,3-b]pyrazine-7-carboxylic acid isopropylamide]
IC50: 3850 nM

CC(C)NC(=O)c1ccc(-c2cnc3[nH]cc(C(=O)N[C@@H](C)C(C)(C)C)c3n2)s1 [Example I-156, 2-(5-Isopropyl-carbamoyl-thiophen-2-yl)-5H-pyrrolo[2,3-b]pyrazine-7-carboxylic acid ((S)-1,2,2-trimethyl-propyl)-amide]
IC50: 0.35 nM

CC(C)NC(=O)c1c[nH]c2ncc(Oc3ccc4c(c3)[C@H](NC(N)=O)CC4)nc12 [Example I-299, 2-((R)-3-Ureido-indan-5-yloxy)-5H-pyrrolo[2,3-b]pyrazine-7-carboxylic acid isopropylamide]
IC50: 143 nM

CC(C)(C(=O)O)C(NC(=O)c1c[nH]c2ncc(C3CC3)nc12)C1CC1 (centres unmarked) [Example I-92, 3-Cyclopropyl-3-[(2-cyclopropyl-5H-pyrrolo[2,3-b]pyrazine-7-carbonyl)-amino]-2,2-dimethyl-propionic acid]
IC50: 95.1 nM

CC(C)NC(=O)c1c[nH]c2ncc(Oc3cccc(C(C)(C)C)c3)nc12 [Example I-231, 2-(3-tert-Butyl-phenoxy)-5H-pyrrolo[2,3-b]pyrazine-7-carboxylic acid isopropylamide]
IC50: 4220 nM

C[C@@H](NC(=O)c1c[nH]c2ncc(-c3cnn(C)c3)nc12)C(C)(C)O [Example I-102, 2-(1-Methyl-1H-pyrazol-4-yl)-5H-pyrrolo[2,3-b]pyrazine-7-carboxylic acid ((R)-2-hydroxy-1,2-dimethyl-propyl)-amide]
IC50: 10.3 nM

C[C@H](NC(=O)c1c[nH]c2ncc(-c3cn(-c4cccc(C(F)(F)F)c4)cn3)nc12)C(C)(C)C [Example I-146, 2-[1-(3-Trifluoromethyl-phenyl)-1H-imidazol-4-yl]-5H-pyrrolo[2,3-b]pyrazine-7-carboxylic acid ((S)-1,2,2-trimethyl-propyl)-amide]
IC50: 13.1 nM

C[C@H](CO)NC(=O)c1c[nH]c2ncc(C3CC3)nc12 [Example I-41, 2-Cyclopropyl-5H-pyrrolo[2,3-b]pyrazine-7-carboxylic acid ((R)-2-hydroxy-1-methyl-ethyl)-amide]
IC50: 112 nM

O=C(NCC1CCCCC1)c1c[nH]c2ncc(C3CC3)nc12 [Example I-107, 2-Cyclopropyl-5H-pyrrolo[2,3-b]pyrazine-7-carboxylic acid cyclohexylmethyl-amide]
IC50: 61.3 nM

C[C@H](NC(=O)c1c[nH]c2ncc(-c3ccc(C(=O)N[C@H](C)C4CC4)s3)nc12)C(C)(C)C [Example I-162, 2-[5-((R)-1-Cyclopropyl-ethylcarbamoyl)-thiophen-2-yl]-5H-pyrrolo[2,3-b]pyrazine-7-carboxylic acid ((S)-1,2,2-trimethyl-propyl)-amide]
IC50: 0.32 nM

C[C@H](NC(=O)c1c[nH]c2ncc(-c3ccc(C(N)=O)s3)nc12)C(C)(C)C [Example I-215, 2-(5-Carbamoyl-thiophen-2-yl)-5H-pyrrolo[2,3-b]pyrazine-7-carboxylic acid ((S)-1,2,2-trimethyl-propyl)-amide]
IC50: 0.21 nM

COC[C@@H](NC(=O)c1c[nH]c2ncc(C3CC3)nc12)C(C)(C)C [Example I-65, 2-Cyclopropyl-5H-pyrrolo[2,3-b]pyrazine-7-carboxylic acid ((S)-1-methoxymethyl-2,2-dimethyl-propyl)-amide]
IC50: 262 nM

CC(NC(=O)c1ccc(-c2cnc3[nH]cc(C(=O)N[C@@H](C)C(C)(C)C)c3n2)s1)c1ccc(F)cc1 (stereo partly drawn) [Example I-195, 2-{5-[1-(4-Fluoro-phenyl)-ethylcarbamoyl]-thiophen-2-yl}-5H-pyrrolo[2,3-b]pyrazine-7-carboxylic acid ((S)-1,2,2-trimethyl-propyl)-amide]
IC50: 0.46 nM
